{"source": "patent US11591316B2", "about": "“Compounds, compositions, and methods” (DENALI THERAPEUTICS INC., priority 2016, dated 2023)", "test": "Metabolic stability in human liver microsomes", "format": "in vitro ADME", "details": "1 μM compound, 0.5 mg/mL protein, projected hepatic clearance (well-stirred model), Table 5", "method": "Metabolic stability of compounds was evaluated in human liver microsomes (from Corning or XenoTech, LLC) using a 96-well plate assay format. Compounds were incubated at 37° C. at 1 μM final concentration in the microsomal matrix (0.5 mg/mL total protein) in the presence or absence of NADPH cofactor. An NADPH regenerating system, comprised of NADP, MgCl2, isocitric acid, and isocitrate dehydrogenase, was used in the assay. Enzymatic reactions were conducted for 0, 5, 10, 20, 30, or 60 min before termination by addition of acetonitrile containing tolbutamide and labetalol internal standards (100 ng/mL). After shaking for 10 min, plates were subjected to centrifugation (4000 rpm at 4° C.) for 20 min and supernatants were mixed 1:3 with HPLC grade water. Samples were analyzed by LC-MS/MS using appropriate MRM transitions for each analyte and internal standard (IS). Analyte/IS peak area ratios were used to determine percent compound remaining at each time point. Intrinsic clearance (Clint; expressed as mL·min^−1·mg^−1) was calculated from the first order elimination constant (k, min^−1) of test article decay and the volume of the incubation. These values were scaled to intrinsic organ clearance (Clint) using human specific scaling factors (48.8 mg microsomal protein per g liver; 25.7 g liver per kg body weight). […]", "data": [{"smiles": "[2H]C([2H])([2H])n1nc(C(C)(C)n2nccn2)cc1Nc1ncc(C(F)(F)F)c(NCC)n1", "note": "[Compound 34, N4-Ethyl-N2-[1-(^2H3)methyl-3-[2-(2H-1,2,3-triazol-2-yl)propan-2-yl]-1H-pyrazol-5-yl]-5-(trifluoromethyl)pyrimidine-2,4-diamine]", "values": [{"measurement": "Human liver microsomes CLhep", "result": 0.75, "unit": "mL/min/kg"}]}, {"smiles": "CNc1nc(Nc2cn(C(C)(C)c3ncn(C)n3)nc2C)ncc1C(F)(F)F", "note": "[Compound 218]", "values": [{"measurement": "Human liver microsomes CLhep", "result": 0, "unit": "mL/min/kg"}]}]}
